Earlier results on one compound are cited in patent publication US20260325541A1, “BENZGALANTAMINE FOR TREATING PERSISTENT POST-CONCUSSION SYMPTOMS” (Alpha Cognition Inc., priority 2023, published 2026).

The test system of series [1] is microglial phagocytic activity. As to conditions: cited from earlier work.
The subject of series [2] is pre-clinical models. As to conditions: cited from earlier work.
Series [3] deals with patients with chronic TBI. As to conditions: oral, cited from earlier work.
The conditions of series [4]: nausea, vomiting and diarrhea; Cochrane review 2006; cited from earlier work.

Regarding `COc1ccc2c3c1O[C@H]1C[C@@H](O)C=C[C@@]31CCN(C)C2` [galantamine], in series [1], the microglial phagocytic activity entry is given as “activation of microglial phagocytic activity”. Further, the pre-clinical effects result in series [2] (active metabolite of benzgalantamine) is “increase cholinergic activation, reduce neuroinflammation, improve blood-brain barrier function, activate cell survival signalling pathways as well as increase neurogenesis”. For the same compound, the “glutamate and beta-amyloid toxicity” value in series [2] is “decrease both glutamate and beta-amyloid toxicity”. The adverse effects entry in series [3] (chronic TBI patients) was “about half of all patients experienced disturbing adverse effects”. Further, the TBI-related symptoms entry in series [3] (patient reported, not placebo controlled) is “subjective improvement of TBI-related symptoms”. Further, the “gastro-intestinal (GI) side effects” value in series [4] is “clinically significant level of mechanism-based gastro-intestinal (GI) side effects”.
